This note sets out measurements from publication PMC9774128, “New Insights into the Mechanism of Antibacterial Action of Synthetic Peptide Mo-CBP3-PepI against Klebsiella pneumoniae” (Antibiotics, 2022).

In data set [1] the test system is L929 (murine fibroblasts). The experiment in a line: Cytotoxicity MTT assay. It counts as cell-based, mice. Conditions: peptide 1 mg mL^−1, MMS 4 × 10^−5 M, absorbance 595 nm, three independent experiments. As to the method:
(§1) The cytotoxicity assay was assessed by measuring the ability of live cells to convert a yellow dye, 3-(4,5-dimethyl-2-thiozolyl)-2,5-diphenyl-2H-tetrazolium bromide (MTT), to formazan. The cell lines used were L929 (murine fibroblasts, ATCC number CCL-1), MRC-5 (human lung fibroblasts, ATCC number CCL-171), and HaCaT (human keratinocytes) following the methodology described by Souza et al.. Cells were treated with Mo-CBP3-PepI at 1 mg mL^−1. The alkylating agent methyl methanesulfonate (MMS) at 4 × 10^−5 M was used as the positive control. The MTT formazan product was dissolved in 150 µL of DMSO, and the absorbance was measured using a multiplate reader (Spectra Count, Packard, Mississauga, ON, Canada). The drug effect was quantified as the percentage of control absorbance of the reduced dye at 595 nm.

For data set [2], the system named is HaCaT (human keratinocytes). The experiment in a line: Cytotoxicity MTT assay. It counts as cell-based. The note with it: peptide 1 mg mL^−1, MMS 4 × 10^−5 M, absorbance 595 nm, three independent experiments. As to the method:
as §1
On the technique in general: Tetrazolium assays rely on reduction of a dye to a coloured formazan, in cell work by metabolically active cells.

Data set [3] deals with MRC-5 (human lung fibroblasts). The experiment in a line: Cytotoxicity MTT assay. In kind it is cell-based. The note with it: peptide 1 mg mL^−1, MMS 4 × 10^−5 M, absorbance 595 nm, three independent experiments. The method, then: as §1
For data set [4], the system named is L929 cells. The experiment in a line: Alkaline comet assay (DNA damage). It counts as cell-based, mice. The note with it: MMS 4 × 10^−5 M, 24 h. As to the method: (§2) For this assay, MMS at 4 × 10^−5 M was used as the positive control for DNA damage, and peptides were assayed at 1 mg mL^−1. The standard alkaline comet assay (single-cell gel electrophoresis) after treatment (24 h). Cells were washed with ice-cold PBS, trypsinized, and resuspended in a complete medium. […] Afterward, the slides were placed in a horizontal electrophoresis unit and incubated with fresh buffer solution (0.3 M NaOH, 0.001 M EDTA, pH 13.0) at 4 °C for 20 min to allow DNA to unwind and the expression of alkali-labile sites. Electrophoresis was conducted for 20 min at 25 V ([…]). All the above steps were performed in the dark to prevent additional DNA damage. Slides were neutralized (0.4 M Tris, pH 7.5) and stained using 20 µg mL of ethidium bromide. Three hundred cells (100 cells from each of the three replicate slides for each treatment) were selected, coded, and blindly analyzed for DNA migration. These cells were visually scored according to tail length into five classes: • Class 0: undamaged, without a tail; • Class 1: with a tail shorter than the diameter of the head nucleus; • Class 2: with tail length 1–2× the diameter of the head; • Class 3: with a tail longer than 2× the diameter of the head; • Class 4: comets with no heads. The index of damage (ID) value was calculated for each sample. […]

The test system of data set [5] is HaCaT cells. The experiment in a line: Alkaline comet assay (DNA damage). Conditions: peptide 1 mg mL^−1, MMS 4 × 10^−5 M, 24 h. In kind it is cell-based, human. The method, then: as §2
In data set [6] the test system is MRC-5 cells. The experiment in a line: Alkaline comet assay (DNA damage). It counts as cell-based, human. The note with it: peptide 1 mg mL^−1, MMS 4 × 10^−5 M, 24 h. As to the method:
as §2

For data set [7], the system named is L929 cells. The experiment in a line: Morphological analysis of apoptotic cells (AO/EB staining). It counts as cell-based, mice. The note with it: peptide 1 mg mL^−1, MMS 4 × 10^−5 M, 24 h. As to the method:
(§3) For this assay, the concentration of peptides was 1 mg mL^−1. […] Peptides and control solutions were incubated as described above. Cells with the morphological characteristics of apoptosis, such as apoptotic bodies, peripheral condensation of chromatin, fragmented nucleus, and small cell volume, were evaluated after 24 h of treatment, either with controls or peptides. The evaluation was executed using acridine orange (AO)/ethidium bromide (EB) staining assay. A total of 50 µL of the cell suspension was mixed with 1 µL of the staining solution (100 µg/mL AO + 100 µg/mL EB in PBS) and spread on a slide, where 300 cells were counted per data point.

Data set [8] deals with HaCaT cells. The description is as above. In kind it is cell-based, human. Conditions: peptide 1 mg mL^−1, MMS 4 × 10^−5 M, 24 h. As to the method:
as §3

Data set [9] deals with MRC-5 cells. Described as above. In kind it is cell-based, human. Conditions: peptide 1 mg mL^−1, MMS 4 × 10^−5 M, 24 h. The method, then: as §3

Consider `COS(C)(=O)=O` [MMS, methyl methanesulfonate], for which the “cell viability (MTT)” value in data set [1], in [2] and in [3] was “death of all cells” throughout. The “DNA damage (comet assay)” value in the data set with L929 cells [4], with HaCaT cells [5] and in the data set on MRC-5 cells [6] was “completely damaged DNA” throughout. Further, the “cell morphology / apoptosis” value in the data set on L929 cells [7] was “severe damage to DNA and nuclei structure”; in the data set with HaCaT cells [8], “severe damage to DNA and nuclei structure”; in the data set with MRC-5 cells [9], “severe damage to DNA and nuclei structure”.
